From patent publication US20100022600A1, “METHODS AND COMPOSITIONS FOR TREATING CENTRAL NERVOUS SYSTEM TUMORS” (priority 2006, published 2010)

Assays:
[1] = system: Rat C6 glioma cells; assay: MTT viability assay, rat C6 glioma cells; format: cell-based; settings: 10 and 30 μM; concentration- and time-dependent; significant at 5 d and 7 d (30 μM) and at 7 d (10 μM)
Procedure: (§1) Rat C6 glioma cells were grown in DMEM and human glioma cells (U87, A172) in RPMI, supplemented with 10% (v/v) fetal calf serum, 100 U/mL penicillin and 100 U/mL streptomycin in a 5% CO2 atmosphere. Primary astrocyte cultures were prepared as described previously (J Neurosci 1998; 18: 4451-60) and grown in DMEM, supplemented with 2.5% (v/v) fetal calf serum, 100 U/mL penicillin and 100 U/mL streptomycin in a 5% CO2 atmosphere. […] Experiments were performed in triplicate.

[2] = Clinical assessment of neurological deficits in C6 rat glioma model; format: in vivo; settings: intracerebral treatment, 21 d
Procedure: After striatal injection of C6 cells and intracerebral treatment with pio or vehicle for 21 d, the animals were examined for neurological deficits. Neurological function was quantified by evaluation of hemiparesis, cycling and immobility (J Neurosurg 1986; 65: 222-9, Stroke 1999; 30: 427-31; discussion 431-2). Hemiparesis was assessed by forelimb flexion and immobility by the loss of ability to walk a distance greater than 15 cm. One point was given for each negative finding and total score then computed. The scores of the treated and untreated group were averaged. A blinded observer performed neurological examinations.

[3] = system: CS-56; assay: CS-56 expression in tumor cells in vitro; format: cell-based; settings: data not shown
[4] = system: C6 glioma cells; assay: Boyden chamber assay, C6 cell migration; format: cell-based, rat
Procedure: C6 cell migration in the presence or absence of pio was assessed using a Boyden chamber (AP48, NeuroProbe, Gaithersburg, Md., USA) with an 8 μm polycarbonate PVPF-filter (Osmonics, Minnetonka, Minn., USA). Cells were suspended in DMEM containing 2.5% fetal calf serum and pio at 30 μM or vehicle (DMSO). C6 glioma cells were pretreated for 24 h in the presence or absence of 30 μM pio. Cells (5×10^3 in 50 μl pio/medium or vehicle/medium) were then plated in the wells of the upper compartment of the chamber (6 well/condition), and the wells of the lower compartment were filled with DMEM. Incubation was performed at 37° C. in 5% CO2 for 4 h. After incubation, cells on the upper surface of the filter, which had not migrated, were gently scraped off, and the filters were then fixed in methanol and subsequently stained with DAPI (1:500 in PBS; Sigma, St. Louis, Mo., USA). The number of cells which migrated to the lower surface of the filter, was counted using public domain software NIH Image 1.62 (Bethesda, Md., USA). Total number of migrating cells under pio treated and vehicle treated condition were compared statistically. Experiments were performed in duplicate.

[5] = system: primary astrocytes; assay: MTT viability assay, primary astrocytes; format: cell-based; settings: 1, 10, 30 μM; 1, 3, 5, 7 d
Procedure: as §1

[6] = system: Ki-67; assay: Ki-67 immunoreactivity and proliferation-index in vivo; design: species or system rat; settings: 9, 14 and 21 days of pio treatment
Procedure: Frozen brain sections were first blocked with 5% normal goat serum or normal horse serum in PBS and subsequently incubated with rabbit anti-Ki-67 antibody (1:200 dilution), mouse anti-CS-56 (1:100 dilution), goat anti-MMP-9 (1:100 dilution) or rabbit anti-cleaved caspase-3 antibody (1:200 dilution) at 4° C. overnight. Sections were washed extensively with PBS before incubation with secondary antibodies. Incubation was carried at room temperature for 1 h. After washing with PBS three times, stained slides were mounted with PBS/glycerol (1:1) and viewed under a fluorescent microscope (Leica, Germany). For determination of the proliferation-index, Ki-67 positive cells in pio and vehicle treated cells and animals were counted, the percentage of Ki-67 positive cells in 1×10^3 tumor cells (P1 staining used in the in vitro experiments—not shown; DAPI stain used in the in vivo experiments) calculated and statistically compared. The percentage of cleaved caspase-3 positive cells was assessed by counting the immunopositive cells in 1×10^3 tumor (DAPI stain) cells and statistically compared.

For `CCc1ccc(CCOc2ccc(CC3SC(=O)NC3=O)cc2)nc1` (stereo not shown) [pioglitazone, 5-[4-[2-(5-ethylpyridin-2-yl)ethoxyl]benzyl]thiazolidine-2,4-dione], the “cellular viability, effect in words” value [1] was “significantly reduced the cellular viability”, the clinical outcome overall [2] was “significant better clinical outcome” and the cycling ([2]; versus vehicle) was “no cycling”. For the same compound, the hemiparesis ([2]; versus vehicle) was “less hemiparesis”, the immobility ([2]; versus vehicle) was “less immobility” and the “CS-56 expression in vitro” value [3] was “highly upregulated”. The “invasiveness of C6 cells (migrated cells)” value ([4]; pio 30 μM during the Boyden chamber incubation, 4 h) was “reduced the invasiveness of C6 cells significantly”, the “inhibition of invasiveness after pretreatment” value ([4]; pretreatment of C6 cells for 24 h with 30 μM pio) was “further increased inhibition” and the “viability of primary astrocytes” value [5] was “not affected”. The “Ki-67 expression in vivo” value [6] was “significant reduction of Ki-67 expression”.
